Laboratory results published in ChEMBL document CHEMBL2073905, “Interactions of a nonpeptidic drug, valacyclovir, with the human intestinal peptide transporter (hPEPT1) expressed in a mammalian cell line” (J Pharmacol Exp Ther, 1999).
Where a SMILES comes first, the peptide text is derived from it. [ ]: non-standard residue; d: D form. Sar = CNCC(=O)O

Columns and labels:
Type in all cases: functional, cell-based
[1] = molecular target: T1, Solute carrier family 15 member 1 (Homo sapiens) (UniProt P46059); experiment: TP_TRANSPORTER: inhibition of VACV uptake (VACV: 20 uM, Leu-Leu: 10000 uM) in PEPT1-expressing CHO cells
T1 sequence (whole entry): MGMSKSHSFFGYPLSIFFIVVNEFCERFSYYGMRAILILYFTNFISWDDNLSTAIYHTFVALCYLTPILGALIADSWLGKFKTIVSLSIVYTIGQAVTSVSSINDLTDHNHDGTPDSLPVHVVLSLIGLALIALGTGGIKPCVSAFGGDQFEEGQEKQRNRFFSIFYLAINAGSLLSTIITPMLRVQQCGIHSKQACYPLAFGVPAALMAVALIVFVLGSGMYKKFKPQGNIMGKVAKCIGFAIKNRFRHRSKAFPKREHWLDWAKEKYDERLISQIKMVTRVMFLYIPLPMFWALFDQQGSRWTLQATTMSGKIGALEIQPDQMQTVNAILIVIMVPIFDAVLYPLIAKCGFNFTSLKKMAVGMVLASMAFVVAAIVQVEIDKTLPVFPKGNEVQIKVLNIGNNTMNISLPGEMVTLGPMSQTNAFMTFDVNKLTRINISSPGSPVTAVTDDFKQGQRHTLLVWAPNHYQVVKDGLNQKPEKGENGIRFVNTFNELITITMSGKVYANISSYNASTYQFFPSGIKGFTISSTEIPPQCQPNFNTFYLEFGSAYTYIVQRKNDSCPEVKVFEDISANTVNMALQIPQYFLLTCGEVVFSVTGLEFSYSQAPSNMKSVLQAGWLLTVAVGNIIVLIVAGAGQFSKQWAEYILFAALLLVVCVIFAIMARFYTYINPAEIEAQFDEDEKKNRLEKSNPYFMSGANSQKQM

[2] = molecular target: T1, Solute carrier family 15 member 1 (Homo sapiens); experiment: TP_TRANSPORTER: inhibition of VACV uptake (VACV: 20 uM, Gly-Gly: 10000 uM) in PEPT1-expressing CHO cells
[3] = molecular target: T2, Solute carrier family 15 member 1 (Homo sapiens, UniProt P46059); experiment: TP_TRANSPORTER: inhibition of VACV uptake in PEPT1-expressing CHO cells
T2 sequence (P46059 whole entry): T1 sequence (whole entry)

[4] = molecular target: T1, Solute carrier family 15 member 1 (Homo sapiens); experiment: TP_TRANSPORTER: inhibition of VACV uptake (VACV: 20 uM, Cephalexin: 10000 uM) in PEPT1-expressing CHO cells
[5] = molecular target: T1, Solute carrier family 15 member 1 (Homo sapiens); experiment: TP_TRANSPORTER: inhibition of VACV uptake (VAVC: 20 uM, Ampicillin: 10000 uM) in PEPT1-expressing CHO cells
[6] = molecular target: T1, Solute carrier family 15 member 1 (Homo sapiens); experiment: TP_TRANSPORTER: inhibition of VACV uptake (VACV: 20 uM, Gly-Leu: 10000 uM) in PEPT1-expressing CHO cells
[7] = substrate: CC(C)[C@H](N)C(=O)OCCOCn1cnc2c(=O)nc(N)[nH]c21; experiment: (§1) TP_TRANSPORTER: uptake in PEPT1-expressing CHO cells
[8] = substrate: CN(CC(=O)O)C(=O)CN; experiment: as §1

CC(C)C[C@H](NC(=O)[C@@H](N)CC(C)C)C(=O)O
inhibition [1]: > 80%

NCC(=O)NCC(=O)O (H-Gly-Gly-OH)
inhibition [2]: > 80%

CC1=C(C(=O)O)N2C(=O)[C@@H](NC(=O)[C@H](N)c3ccc(O)cc3)[C@H]2SC1 [CEFADROXIL]
Ki [3]: 9.1 mM

CN(CC(=O)O)C(=O)CN [GLYCYLSARCOSINE] (H-Gly-[Sar]-OH)
Ki [3]: 12.8 mM

CC1=C(C(=O)O)N2C(=O)[C@@H](NC(=O)[C@H](N)c3ccccc3)[C@H]2SC1
inhibition [4]: 50%

CC1(C)S[C@@H]2[C@H](NC(=O)[C@H](N)c3ccccc3)C(=O)N2[C@H]1C(=O)O
inhibition [5]: 50%

CC(C)C[C@H](NC(=O)CN)C(=O)O
inhibition [6]: > 80%

B1: Solute carrier family 15 member 1 (Homo sapiens), P46059 (protein)
chain: T1 sequence (whole entry)
Km [7]: 1640 µM
Km [8]: 3130 µM
